Results published in patent publication US6376670B1, “Quinoline-indole antimicrobial agents, uses and compositions related thereto” (Sepracor Inc., priority 1997, dated 2002).
Read-outs that look alike come from different tables or passages of the source.

Columns and labels:
Test in all cases: Determination of MIC values (BHI broth, 96 well microtiter plate)
Type in all cases: cell-based
[1] = tested on: methicillin-resistant Staphylococcus aureus (MRSA); conditions: Staphylococcus aureus, MRSA, 16 h, BHI broth, 37° C., overnight (about 16 hours); read-out: MIC MRSA
How it was run: (§1)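 Broth microdilution in BHI broth used final compound concentrations of 25 to 0.39 μg/mL, diluted from DMSO solutions. Inoculum was 10^5–10^6 cells/mL from cultures grown to a 0.5 McFarland standard. Plates were incubated overnight (~16 h) at 37 °C in about 7–10% CO2; MIC was the lowest concentration with no visible growth.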

Streptococcus pneumoniae = conditions: Streptococcus pneumoniae, BHI broth, read-out: MIC S. pneu
How it was run: as §1

[2] = tested on: vancomycin-resistant Enterococcus spp. (VRE); conditions: Enterococcus, VRE, 16 h, BHI broth, 37° C., read-out: MIC VREF
How it was run: as §1

[3] = 37° C., overnight (about 16 hours)

Row | SMILES | MIC [1] [µg/mL] | MIC (Streptococcus pneumoniae; [3]) [µg/mL] | MIC ([2]; overnight (about 16 hours)) [µg/mL] | MIC (Streptococcus pneumoniae; S. pneu, overnight 37° C.) [µg/mL] | MIC (Streptococcus pneumoniae; 37° C., about 16 hours) [µg/mL] | MIC ([2]; about 16 hours) [µg/mL]
1 | COc1ccc(NC(=O)c2cc(-c3c[nH]c4ccc(Br)cc34)nc3ccccc23)cc1 [Example 48] | < 7 | < 7 | > 25 | – | – | –
2 | O=C(O)c1ccc2[nH]cc(-c3cc(C(=O)O)c4ccccc4n3)c2c1 [Example 76] | > 25 | > 25 | > 25 | – | – | –
3 | NCc1ccc(CNC(=O)c2cc(-c3c[nH]c4ccc(Br)cc34)nc3ccc(-c4ccccc4)cc23)cc1 [Example 96] | < 7 | < 7 | < 7 | – | – | –
4 | NCc1ccc(CNC(=O)c2cc(-c3c[nH]c4ccc(Br)cc34)nc3c(Cl)cc(I)cc23)cc1 [Example 102] | < 7 | < 7 | < 7 | – | – | –
5 | NCc1ccc(CNC(=O)c2cc(-c3c[nH]c4ccc(Br)cc34)nc3ccc(C(F)(F)F)cc23)cc1 [Example 103] | < 7 | < 7 | < 7 | – | – | –
6 | Cc1ccc2nc(-c3c[nH]c4ccc(Br)cc34)cc(C(=O)NCc3ccc(CN)cc3)c2c1 [Example 104] | < 7 | < 7 | < 7 | – | – | –
7 | NCCCNC(=O)c1cc(-c2c[nH]c3ccc(Br)cc23)nc2ccc(I)cc12 [Example 108] | < 7 | < 7 | < 7 | – | – | –
8 | NCCCCNC(=O)c1cc(-c2c[nH]c3ccc(Br)cc23)nc2ccc(I)cc12 [Example 109] | < 7 | < 7 | < 7 | – | – | –
9 | NCCCCCNC(=O)c1cc(-c2c[nH]c3ccc(Br)cc23)nc2ccc(I)cc12 [Example 110] | < 7 | < 7 | < 7 | – | – | –
10 | NCCCCCCNC(=O)c1cc(-c2c[nH]c3ccc(Br)cc23)nc2ccc(I)cc12 [Example 111] | < 7 | < 7 | < 7 | – | – | –
11 | NC1CCCCC1NC(=O)c1cc(-c2c[nH]c3ccc(Br)cc23)nc2ccc(I)cc12 (stereo not drawn) [Example 112] | < 7 | < 7 | < 7 | – | – | –
12 | NC1CCC(NC(=O)c2cc(-c3c[nH]c4ccc(Br)cc34)nc3ccc(I)cc23)CC1 (stereo not drawn) [Example 113] | < 7 | < 7 | < 7 | – | – | –
13 | NCC1CCC(CNC(=O)c2cc(-c3c[nH]c4ccc(Br)cc34)nc3ccc(I)cc23)CC1 (stereo not drawn) [Example 114] | < 7 | < 7 | < 7 | – | – | –
14 | NCC1CCCC(CNC(=O)c2cc(-c3c[nH]c4ccc(Br)cc34)nc3ccc(I)cc23)C1 (stereo not drawn) [Example 115] | < 7 | < 7 | < 7 | – | – | –
15 | NCc1cccc(CNC(=O)c2cc(-c3c[nH]c4ccc(Br)cc34)nc3ccc(I)cc23)c1 [Example 116] | < 7 | < 7 | < 7 | – | – | –
16 | O=C(c1cc(-c2c[nH]c3ccc(Br)cc23)nc2ccc(I)cc12)N1CCCNCC1 [Example 117] | < 7 | < 7 | < 7 | – | – | –
17 | Cc1cc2nc(-c3c[nH]c4ccc(Br)cc34)cc(C(=O)NCc3ccc(CN)cc3)c2cc1C [Example 118] | < 7 | < 7 | < 7 | – | – | –
18 | Cn1cc(-c2cc(C(=O)NCc3ccc(CN)cc3)c3ccccc3n2)c2cc(Br)ccc21 [Example 119] | < 7 | < 7 | < 25 | – | – | –
19 | Cc1ccc2nc(-c3c[nH]c4ccc(Br)cc34)cc(C(=O)NCc3cccc(CN)c3)c2c1 [Example 122] | < 7 | < 7 | < 7 | – | – | –
20 | NCC1CCCC(CNC(=O)c2cc(-c3c[nH]c4ccc(Br)cc34)nc3ccc(Br)cc23)C1 (stereo not drawn) [Example 123] | < 7 | < 7 | < 7 | – | – | –
21 | NCC1CCC(CNC(=O)c2cc(-c3c[nH]c4ccc(Br)cc34)nc3ccc(Br)cc23)CC1 (stereo not drawn) [Example 124] | < 7 | < 7 | < 7 | – | – | –
22 | Cc1cc2nc(-c3c[nH]c4ccc(Br)cc34)cc(C(=O)NCC3CCCC(CN)C3)c2cc1C (stereo not drawn) [Example 127] | < 7 | < 7 | < 7 | – | – | –
23 | Cc1cc2nc(-c3c[nH]c4ccc(Br)cc34)cc(C(=O)NCC3CCC(CN)CC3)c2cc1C (stereo not drawn) [Example 128] | < 7 | < 7 | < 7 | – | – | –
24 | NC1CCC(NC(=O)c2cc(-c3c[nH]c4ccc(Br)cc34)nc3ccc(Cl)cc23)CC1 (stereo not drawn) [Example 131] | < 7 | < 7 | < 25 | – | – | –
25 | NCC1CCCC(CNC(=O)c2cc(-c3c[nH]c4ccc(Br)cc34)nc3ccc(Cl)cc23)C1 (stereo not drawn) [Example 132] | < 7 | < 7 | < 7 | – | – | –
26 | NCC1CCC(CNC(=O)c2cc(-c3c[nH]c4ccc(Br)cc34)nc3ccc(Cl)cc23)CC1 (stereo not drawn) [Example 133] | < 7 | < 7 | < 7 | – | – | –

Results, then the molecule that gave them:

Row | MIC [1] [µg/mL] | MIC (Streptococcus pneumoniae; [3]) [µg/mL] | MIC ([2]; overnight (about 16 hours)) [µg/mL] | MIC (Streptococcus pneumoniae; S. pneu, overnight 37° C.) [µg/mL] | MIC (Streptococcus pneumoniae; 37° C., about 16 hours) [µg/mL] | MIC ([2]; about 16 hours) [µg/mL] | SMILES
27 | < 7 | < 7 | < 7 | – | – | – | NCc1cccc(CNC(=O)c2cc(-c3c[nH]c4ccc(Br)cc34)nc3ccc(Cl)cc23)c1 [Example 134]
28 | < 7 | < 7 | < 7 | – | – | – | O=C(c1cc(-c2c[nH]c3ccc(Br)cc23)nc2ccc(Cl)cc12)N1CCNCC1 [Example 136]
29 | < 7 | < 7 | < 7 | – | – | – | NCc1ccc(CNC(=O)c2cc(-c3c[nH]c4ccc(Br)cc34)nc3cc(Br)ccc23)cc1 [Example 138]
30 | < 7 | < 7 | < 7 | – | – | – | NCc1ccc(CNC(=O)c2cc(-c3c[nH]c4ccc(Br)cc34)nc3c(Br)cccc23)cc1 [Example 139]
31 | < 7 | < 7 | < 7 | – | – | – | NCc1ccc(CNC(=O)c2cc(-c3c[nH]c4ccc(Br)cc34)nc3cc(Cl)ccc23)cc1 [Example 142]
32 | < 7 | < 7 | < 7 | – | – | – | NCc1ccc(CNC(=O)c2cc(-c3c[nH]c4ccc(Br)cc34)nc3c(Cl)cccc23)cc1 [Example 143]
33 | < 7 | < 25 | < 25 | – | – | – | NCc1ccc(CNC(=O)c2cc(-c3c[nH]c4ccc(Br)cc34)nc3cc4c(cc23)OCO4)cc1 [Example 144]
34 | > 25 | > 25 | > 25 | – | – | – | NCc1ccc(CNC(=O)c2cc(-c3cnc4ccccc4c3)nc3ccc(I)cc23)cc1 [Example 151]
35 | < 7 | < 7 | > 25 | – | – | – | Clc1ccc2nc(-c3c[nH]c4ccc(Br)cc34)ccc2c1 [Example 153]
36 | < 7 | < 7 | < 7 | – | – | – | NCc1ccc(COCc2cc(-c3c[nH]c4ccc(Br)cc34)nc3ccc(C(F)(F)F)cc23)cc1 [Example 154]
37 | < 7 | < 7 | < 7 | – | – | – | NCc1ccc(CNC(=O)c2cc(-c3c[nH]c4ccc(Br)cc34)nc3cc(Cl)c(I)cc23)cc1 [Example 158]
38 | < 7 | < 25 | < 25 | – | – | – | NCc1ccc(CNC(=O)c2cc(-c3c[nH]c4ccccc34)nc3ccc(I)cc23)cc1 [Example 159]
39 | < 7 | < 7 | < 7 | – | – | – | Cc1ccc2c(C(=O)NCc3ccc(CN)cc3)cc(-c3c[nH]c4ccc(Br)cc34)nc2c1 [Example 161]
40 | < 25 | > 25 | > 25 | – | – | – | c1ccc2nc(-c3c[nH]c4ccccc34)ccc2c1 [Example 163]
41 | < 7 | < 7 | < 5 | – | – | – | Clc1ccc2nc(-c3c[nH]c4ccccc34)ccc2c1 [Example 164]
42 | < 7 | < 7 | < 7 | – | – | – | Brc1ccc2[nH]cc(-c3ccc4ccccc4n3)c2c1 [Example 165]
43 | < 7 | < 7 | > 25 | – | – | – | Clc1ccc2[nH]cc(-c3ccc4ccccc4n3)c2c1 [Example 168]
44 | < 7 | < 7 | > 25 | – | – | – | Clc1ccc2nc(-c3c[nH]c4ccc(Cl)cc34)ccc2c1 [Example 169]
45 | < 7 | < 7 | > 25 | – | – | – | COc1ccc(NC(=O)c2cc(-c3c[nH]c4ccc(Br)cc34)nc3ccc(C(F)(F)F)cc23)cc1 [Example 170]
46 | < 7 | < 7 | < 7 | – | – | – | O=C(Nc1ccc(O)cc1)c1cc(-c2c[nH]c3ccc(Br)cc23)nc2ccc(C(F)(F)F)cc12 [Example 171]
47 | < 7 | < 7 | > 25 | – | – | – | O=C(NCc1nc2ccccc2[nH]1)c1cc(-c2c[nH]c3ccc(Br)cc23)nc2ccc(C(F)(F)F)cc12 [Example 172]
48 | < 7 | < 7 | > 25 | – | – | – | O=C(NCc1nc2ccccc2[nH]1)c1cc(-c2c[nH]c3ccc(Br)cc23)nc2ccc(I)cc12 [Example 173]
49 | < 7 | < 25 | > 25 | – | – | – | COc1ccc(NC(=O)c2cc(-c3c[nH]c4ccc(Br)cc34)nc3ccc(I)cc23)cc1 [Example 174]
50 | < 7 | < 7 | < 25 | – | – | – | O=C(Nc1ccc(O)cc1)c1cc(-c2c[nH]c3ccc(Br)cc23)nc2ccc(I)cc12 [Example 175]
51 | < 7 | < 7 | < 25 | – | – | – | Fc1ccc2[nH]cc(-c3ccc4ccccc4n3)c2c1 [Example 181]
52 | < 25 | > 25 | > 25 | – | – | – | Fc1ccc2c(-c3ccc4ccccc4n3)c[nH]c2c1 [Example 183]
53 | – | – | – | < 7 | – | – | Cn1cc(-c2cc(C(=O)NCc3ccc(CN)cc3)c3cc(I)ccc3n2)c2cc(Br)ccc21 [Example 299]
54 | – | – | – | – | < 7 | > 25 | Cc1cccc2ccc(-c3c[nH]c4c(C)cccc34)nc12 [Example 471]
